Laboratory results taken from patent US4447603A, “Substituted-6-n-propyl-8-methylimidazo[1,5-d]-as-triazin-4-(3H)-ones” (American Cyanamid Company, priority 1981, dated 1984).

System: histamine release from immunologically stimulated human basophils
Experiment: inhibition of mediator (histamine) release from immunologically stimulated human basophils
Type: cell-based
Details: Leukocyte, 1 h; human basophils (leukocytes) challenged with anti-IgE or antigen, 60 minutes at 37° C.; linear regression; read-out: ED50 (the concentration in μM which causes a 50% inhibition of histamine release)
Description: The novel compounds of this invention as well as the prior art compound, 6-n-propyl-8-methylimidazo[1,5-d]-as-triazin-4(3H)-one, have been tested by the procedure of Lichtenstein, L. M. and Osler, A. G., J. Exp. Med., 120, 507-530, (1964), which evaluates the ability of compounds to inhibit mediator (histamine) release from immunologically stimluated human basophils.
Dissolve 140.3 g. of sodium chloride, 7.45 g. of potassium chloride and 74.5 g. of Trizma-Tris Pre-Set, Reagent Grade, pH 7.6, at 25° C. (Sigma Chemical Co.) in sufficient water to give a final volume of 2 liters.
(Sigma Chemical Co.) (30 mg./ml.)
Made to 0.075 M and 0.5 M. respectively, with calcium chloride dihydrate and magnesium chloride hexahydrate.
A 10 ml. portion of 10X Tris Buffer and 1.0 ml. of human albumin are diluted to 100 ml. with water.
A 10 ml. portion of 10X Tris Buffer, 1.0 ml. of human albumin. 0.8 ml. of calcium stock and 0.2 ml. of magnesium stock are diluted to 100 ml. with water.
Behring Diagnostics (Generally used at 10 μg. protein/ml. final concentration.)
Strength 1:100 (w:v) allergenic extract, Hollister-Stier Labs. Generally this is diluted 1:1000 to 1:10,000 (considering the vial as stock).
Intradermal solutions or intramuscular preparations for hyposensitization, Hollister-Stier Labs. The final concentration used is on the order of 1 PNU/ml.
Eighty milliliters of blood is withdrawn from subjects with known histamine release to anti-IgE, ragweed antigen or other specific allergen, using four 20 ml. heparinized tubes. This 80 ml. of blood is mixed with 20 ml. of saline containing 0.6 g. of dextrose and 1.2 g. of dextran. The blood is allowed to sediment at room temperature in two 50 ml. polycarbonate centrifuge tubes until a sharp interface develops between the red cells and plasma (60-90 minutes). The plasma (top) layer from each tube is withdrawn by pipet and transferred to respective 50 ml. polycarbonate tubes. The plasma is centrifuged for 8 minutes at 110X g at […] The supernatant is carefully poured off as completely as possible and the cell button is resuspended in 2-3 ml. of Tris-A buffer using a siliconized Pasteur pipet. The resuspension is accomplished by drawing the liquid gently in and out of the pipet, with the tip below the liquid, until an even suspension of cells is obtained. Sufficient Tris-A buffer is then added to bring the volume in the tube to about 45 ml. and the tube is centrifuged at 110X g for 8 minutes at 4° C. The supernatant is poured off and the cell button is resuspended and centrifuged as described above. […]

`CCCc1n[nH]c(=O)n2c(CCC)nc(C)c12` [1,6-Di-n-propyl-8-methylimidazo[1,5-d]-as-triazin-4(3H)-one] and `CCCc1nc(C)c2c(CC)n[nH]c(=O)n12` [1-Ethyl-6-n-propyl-8-methylimidazo[1,5-d]-as-triazin-4(3H)-one] are within 1.5-fold of each other in IC50: 16.1 µM for the first, 12.3 µM for the second.

First: CCCc1nc(C)c2c(C)n[nH]c(=O)n12 [1,8-Dimethyl-6-n-propylimidazo[1,5-d]-as-triazin-4(3H)-one]
Second: CCCc1nc(C)c2cn[nH]c(=O)n12 [6-n-propyl-8-methylimidazo[1,5-d]-as-triazin-4(3H)-one, reference compound]
The IC50 of the first is 6.6-fold lower: 13.1 µM for the first, 87 µM for the second. The first is the more potent here.
